This note sets out measurements from US20250049930A1, “PROTAC MOLECULES TARGETING FOXP3 AND USES THEREOF” (CEDARS-SINAI MEDICAL CENTER, priority 2022, published 2025).

Residues, ends and D or L forms follow the SMILES beside them. *: point of attachment. X1 = O=C1CCC(N2C(=O)c3cccc(*)c3C2=O)C(=O)N1; PEG4 = NCCOCCOCCOCCOCCC(=O)O

The subject of assay [1] is CD4+ and CD8+ lymphocytes. Briefly: Ex vivo restimulation of splenocytes/lymph nodes from treated tumor-bearing mice with CA9 peptide, flow cytometry. The class given is in vivo, Balb/C mice. Particulars: spleen and lymph nodes harvested on day 28, restimulated ex vivo with CA9 peptide. Here is the method:
FIGS. 4A-4D depict that PF enhanced the antitumor immunity provided by αPD1 or mTOR inhibition in mice. Mice tumors were established by injecting RENCA-CA9 cells subcutaneously in the flank (day 0) of Balb/C mice (6-8 mice per group). PF was administered i.p., twice a week, throughout the experiment, starting on day 10 (FIGS. 4A and 4C). αPD1 was administered i.p., twice a week, throughout the experiment, starting on days 5 (FIG. 4A). Splenocytes were harvested, and restimulated ex vivo with mouse CA9 peptide. The splenocytes were assessed by flow cytometry for Granzyme B, IFNγ or TNFα after gating on CD4 or CD8 (FIG. 4B). In a similar mouse tumor growth experiment, temsirolimus was administered i.p. on day 10, every other day, for 14 days (FIG. 4C). Similar to FIG. 4B, splenocytes were harvested, restimulated and analyzed (FIG. 4D). Representative results are shown for experiments conducted at least twice. […]
FIGS. 6A-6C depict that PF enhances immune activation and CD8+ memory lymphocyte formation. […] Spleen and lymph nodes were harvested on day 28 and restimulated ex vivo with CA9 peptide and assessed by flow cytometry (FIGS. 6B and 6C). CD8+ lymphocytes treated with PF had increased activation as measured by IFNγ or TNFα (FIG. 6B). […]
To assess T cells in mice, CD4+ FoxP3+ cells from serial peripheral blood draws were assessed by flow cytometry. […]

In the next assay the target is T1, FoxP3 (Mus musculus, UniProt Q99JB6).
T1 construct: from tissue; host or cells: peripheral blood and spleen of mice
T1 sequence (Q99JB6 1-429): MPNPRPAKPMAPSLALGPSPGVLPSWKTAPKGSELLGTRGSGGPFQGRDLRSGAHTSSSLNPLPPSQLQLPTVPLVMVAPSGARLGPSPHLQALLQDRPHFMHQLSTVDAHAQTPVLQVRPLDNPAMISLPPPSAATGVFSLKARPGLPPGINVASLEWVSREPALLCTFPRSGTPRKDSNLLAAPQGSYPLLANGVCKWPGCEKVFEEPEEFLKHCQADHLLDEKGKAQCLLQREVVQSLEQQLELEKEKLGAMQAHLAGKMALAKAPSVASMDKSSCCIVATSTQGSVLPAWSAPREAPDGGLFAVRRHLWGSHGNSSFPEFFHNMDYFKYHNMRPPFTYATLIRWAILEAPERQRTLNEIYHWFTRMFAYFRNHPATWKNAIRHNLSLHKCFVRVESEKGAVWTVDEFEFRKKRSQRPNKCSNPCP
Briefly: FoxP3 positive CD4+ cells in peripheral blood and spleen of mice after PF administration. The class given is in vivo. On the procedure: FIGS. 2A-2E depict that a proteolysis-targeting chimera (PROTAC) targeting FoxP3 (PF) degraded FoxP3 in vitro and in vivo. P-FoxP3 forms a ternary complex with cereblon and FoxP3. Surface plasmon resonance (SPR) assay was used to measure the equilibrium dissociation constant (KD) for the ternary complex consisting of cereblon, P-FoxP3 and FoxP3 (FIG. 2A). SPR assay was used to measure the KD for the binary complex consisting of cereblon and P-FoxP3 (FIG. 2B). Mouse splenocytes were treated in vitro with varying PF concentrations and percent of CD4+ cells staining for intracellular FoxP3 was assessed by flow cytometry. (FIG. 2C). Mice received 0.1 mmole of PF intraperitoneally (i.p.) (FIGS. 2D and 2E). 72 hours later, FoxP3 positive CD4+ cells in peripheral blood and spleen were assessed by flow cytometry (FIG. 2D). FoxP3 positive CD4+ cells in peripheral blood were assessed by flow cytometry at various timepoints following PF administration (FIG. 2E). Representative results from duplicate experiments are shown.
To assess T cells in mice, CD4+ FoxP3+ cells from serial peripheral blood draws were assessed by flow cytometry. To assess lymphocytes in mice treated with various therapies, lymph nodes and spleens were harvested to make single-cell suspensions that were activated by a CA9 peptide (AYEQLLSHL) for 4 days, and then flow cytometry was used to assess CD4, CD8, IFNγ, TNFα, CD62L CD44, and Eomes.
To determine if PF results in the degradation of FoxP3, mouse splenocytes were treated in vitro with varying concentrations of PF and percent of CD4+ cells staining for intracellular FoxP3 was assessed by flow cytometry. […] The next step was to determine if PF can decrease FoxP3 in vivo. […] 72 hours later, FoxP3 positive CD4+ cells in peripheral blood and spleen were assessed by flow cytometry. […] To understand the time course of FoxP3 decrease, serial blood draws were assessed after a single injection of PF (FIG. 2E). FoxP3 positive CD4+ cells in peripheral blood were assessed by flow cytometry at various timepoints following the PF administration. […]

On to `CSCC[C@H](NC(=O)[C@H](C)NC(=O)[C@H](Cc1ccccc1)NC(=O)[C@H](Cc1ccccc1)NC(=O)[C@@H]1CCCN1C(=O)[C@H](Cc1c[nH]c2ccccc12)NC(=O)[C@H](CCSC)NC(=O)[C@H](CCCCN)NC(=O)[C@H](CCCNC(=N)N)NC(=O)[C@H](Cc1ccccc1)NC(=O)[C@H](CO)NC(=O)[C@H](CCC(N)=O)NC(=O)[C@H](Cc1ccccc1)NC(=O)[C@H](CC(=O)O)NC(=O)[C@H](CCCNC(=N)N)NC(=O)CCOCCOCCOCCOCCNc1cccc2c1C(=O)N(C1CCC(=O)NC1=O)C2=O)C(=O)O` (stereo partly shown) [PF, Pomalidomide-PEG4-RDFQSFRKMWPFFAM] ({X1-PEG4}-RDFQSFRKMWPFFAM-OH), for which the “memory markers (CD62L, CD44 and Eomes) in CD8+ cells” value in assay [1] was “displayed a memory phenotype with increase in CD62L, CD44 and Eomes expression”. At FoxP3 (serial blood draws after a single injection of PF), the “FoxP3 positive CD4+ cells in peripheral blood, time course” value was “immediately dropped as measured on day 2, and slightly came up on day 8”. The “FoxP3 positive CD4+ cells in peripheral blood and spleen” value on FoxP3 (single dose 0.1 mmole i.p., 72 hours later, peripheral decrease p<0.0008) was “decreased 3 days later in both spleen and peripheral blood”. Besides, at FoxP3 (spleen and peripheral lymphocytes), the “duration of FoxP3 decrease after a single PF dose” value is “at least 8 days”.
